Tests used:
[1] = WST-1 cytotoxicity assay with ES-D3 cells; assay type: cell-based; details: mouse, ES-D3 embryonic stem cells, WST-1, 5-day exposure, read-out: decline in cell viability
Method: (§1) The murine ES-D3 cell line was purchased from ATCC (Wesel, Germany). The cells were maintained in polystyrene cell culture flasks (Corning, The Netherlands) in Dulbecco’s modified Eagle’s medium (DMEM, Invitrogen, Breda, The Netherlands), supplemented with 20 % heat-inactivated fetal calf serum (Lonza, BioWhittaker, Verviers, Belgium), 50 U/ml penicillin with 50 μg/ml streptomycin (Invitrogen), 2 mM L-glutamine (Invitrogen), 0.1 mM β-mercaptoethanol (Sigma-Aldrich) and 1 % (v/v) nonessential amino acids (Invitrogen), at 37 °C and 5 % CO2 in a humidified atmosphere. Cells were kept undifferentiated with 1000 U/ml murine leukemia inhibiting factor (LIF) (Sigma-Aldrich) and subcultured every 2–3 days using nonenzymatic cell dissociation solution (Sigma-Aldrich) to detach the cells.
To determine cytotoxicity of the compounds, a WST-1 assay was performed. This assay measures the influence of test compounds on the formation of the water-soluble formazan reaction product from WST-1 by mitochondrial succinate-tetrazolium reductase enzymes. The cytotoxicity of a test compound inversely correlates with the absorbance of the produced formazan quantified spectrophotometrically as described previously (Reitsma et al. [2013]). ES-D3 cells were exposed to test compounds for the duration of 1 or 5 days as described before (Li et al. [2015]). Briefly, cells were seeded in 96-well plates (Greiner bio-one) at concentrations of 20 × 10^4 cells/ml (1-day exposure) or 1 × 10^4 cells/ml (5-day exposure) in 100 μl culture medium in the absence of LIF and incubated for 1 day to allow cell adherence. Then, the cells were exposed to the test compounds at concentrations up to 60 μM (final solvent concentration 0.2 % DMSO) and subsequently cultured for 1 or 5 days at 37 °C and 5 % CO2 in a humidified atmosphere. Solvent DMSO (0.2 %) was used as a negative control and 1 % Triton X-100 served as a positive control in all cytotoxicity assays. After incubation of 1 or 5 days, 20 μl WST-1 reagent (Roche, Woerden, The Netherlands) was added to each well and the plates were incubated for another 3 h. Then, absorbance was measured at 450 nm using a SpectraMax M2 (Molecular Devices, Sunnyvale, USA). Three wells were used per treatment in each independent experiment. Three independent experiments were done for each compound. The cell viability was expressed as % of the solvent control, with the solvent control set at 100 % viability. Reproducible results were obtained from the treatments of negative and positive controls in all of the cytotoxicity assays.

ES-D3 cells = experiment: ES-D3 cell differentiation assay (differentiation into contracting cardiomyocytes); assay type: cell-based, mouse; details: for Corrected BMCd50: BMCd50 divided by relative Papp value (BeWo model); for IC50: Mus musculus, Cardiomyocyte, 240 h, concentration for 50 % reduction in number of differentiated EBs, BMD modelling, day 10, read-out: BMCd50
Method: as §1
Differentiation assays were carried out to detect the effect of test compounds on the differentiation of ES-D3 cells into contracting cardiomyocytes using culture medium in the absence of LIF. On day 1, droplets of 20 μl cell suspension (3.75 × 10^4 cells/ml) were placed as hanging drops, to which the test compounds 0594, 0595, 0596, 0599, 0600 and 0618 were added at concentrations ranging from 0.2 to 60 μM (final solvent concentration 0.2 % DMSO), on the inner side of the lid of a 96-well plate. Sterile lids of Eppendorf tubes were placed on the corner wells of the plates to prevent contact of the drops with the plate. The wells of the 96-well plate were filled with 250 μl phosphate buffered saline (PBS) (Invitrogen), and the plate was sealed with Micropore tape (3M, Neuss, Germany) to prevent evaporation of the hanging drops. Plates were incubated for 3 days at 37 °C and 5 % CO2 in a humidified atmosphere. In the drops, cells formed embryonic bodies (EBs), which were transferred to nontissue culture-treated Petri dishes (diameter 6 cm, Greiner) with 5 ml of medium with test compound. On day 5, the EBs were transferred to a 24-well plate (Corning) with 1 ml of medium with test compound, with one EB per well. On day 10, the number of wells containing contracting EBs was determined by visual inspection using a light microscope. Solvent control (0.2 % DMSO in culture medium) was included in each experiment. The solvent control was also used to assess the quality of the batch of ES-D3 cells used in each individual test (cells being randomly distributed over test groups and solvent control). Tests were accepted for further analysis if at least 21 of the 24 wells of the solvent control contained contracting cardiomyocytes. For each test compound, three independent assays were performed. The results were expressed as “fraction of total,” with 1.0 implying all EBs in one 24-well plate differentiated into contracting cardiomyocytes.
Different dichotomous concentration–response models were fitted to the in vitro developmental toxicity data obtained from the ES-D3 cell differentiation assay to calculate benchmark concentrations (BMC) using Environmental Protection Agency benchmark dose (BMD) software version 2.4. For each test compound, the BMCd50, representing the concentration for a 50 % reduction in the number of differentiated EBs, was derived. Models included in the evaluation were the gamma, logistic, loglogistic, probit, logprobit, multistage, weibull and the quantal-linear model. […] The lowest BMCd50 value was chosen from the accepted models.
To combine in vitro developmental toxicity data obtained from the ES-D3 cell differentiation assay with placental transfer data obtained from the BeWo transport model, a corrected BMCd50 value was calculated by dividing the BMCd50 values by the relative Papp values, as described in Li et al. ([2015]).

Row | SMILES | cytotoxicity at 5 days, 60 µM [1] | Corrected BMCd50 (ES-D3 cells) | IC50 (ES-D3 cells)
1 | OC(c1cccnc1)c1c(-c2ccc(F)cc2F)noc1-c1ccc(Cl)cc1F (stereo not drawn) [compound 0594, [5-(4-Chloro-2-fluoro-phenyl)-3-(2,4-difluoro-phenyl)-isoxazol-4-yl]-pyridin-3-yl-methanol] | 30% | 23.3 µM | 6.9 µM
2 | OC(c1cccnc1)c1c(-c2ccc(F)cc2F)csc1-c1ccc(F)cc1F (stereo not drawn) [compound 0595, [2,4-Bis-(2,4-difluoro-phenyl)-thiophen-3-yl]-pyridin-3-yl-methanol] | 20% | 141.8 µM | 11 µM
3 | CC(c1nc(-c2ccc(C#N)cc2)cs1)C(O)(Cn1cncn1)c1ccc(F)cc1 (stereo not drawn) [compound 0596, 4-{2-[2-(4-Fluoro-phenyl)-2-hydroxy-1-methyl-3-[1,2,4]triazol-1-yl-propyl]-thiazol-4-yl}-benzonitrile] | 70% | 18.1 µM | 11.4 µM
4 | CC(c1nc(-c2ccc(C#N)cc2)cs1)C(O)(Cn1ccnc1)c1ccc(F)cc1 (stereo not drawn) [compound 0599, 4-[2-[2-(4-Fluorophenyl)-2-hydroxy-3-imidazol-1-yl-1-methyl-propyl]thiazol-4-yl]benzonitrile] | 80% | 3.8 µM | 1.8 µM
5 | CC1CC(C)OC(Cn2cncn2)(c2ccc(Oc3ccc(Cl)cc3)cc2Cl)O1 (stereo not drawn) [compound 0600, 1-[[2-[2-Chloro-4-(4-chlorophenoxy)phenyl]-4,6-dimethyl-1,3-dioxan-2-yl]methyl]-1,2,4-triazole] | 20% | 21.0 µM | 4.2 µM
